“Also recorded” adds a separate entry of the source. Like-named read-outs stand apart in the source and are kept apart here. Blank lines part the entries; values can stand above or below the molecule they belong to.
What was measured:
[1] = system: Xanthobacter agilis; experiment: Induction of phthalyl amidase in cultures of Xanthobacter agilis (Table 1); assay type: cell-based; conditions: for effect on wet weight cell mass: 48 hours growth
Method: Three compounds at different concentrations were added to aerated cultures of the organism growing at 30° C. in Bac MI medium. The compounds tested were phthalate (PAA), phthalyl glycine (PAG), and PMBL. Cells of Xanthobacter agilis were grown with aeration for 24 hours. This vegetative culture was used to inoculate Bac MI medium (50 ml) containing different concentrations of the compounds to be tested. After 48 hours growth under standard conditions, cells were harvested by centrifugation and wet weight of the cells was determined. Crude cell extracts were prepared by lysozyme treatment of the cells as in Example 1. Suspensions were briefly sonicated to break up the viscous suspension. A cell-free supernatant was obtained by centrifugation of the suspension at 14,000 rpm for 15 minutes.
Enzyme activity in cell-free lysates was determined by monitoring conversion of the chromogenic substrate 4-(2'-carboxy-N-benzoyl)amino-2-carboxy-nitrobenzene (II) to 2-nitro-5-amino benzoic acid and phthalic acid, a reaction catalyzed by phthalyl amidase as shown below: [drawing 4]
The assay reaction mixture (1 ml) consisted of 0.3 μmol of the chromogenic substrate (II) and 0.001-0.5 μg of enzyme preparation in 50 mM potassium phosphate buffer, pH 8.0 (buffer A). The enzymatic reaction was conducted at 30° C. for 10 minutes and the appearance of product was monitored at 380 nm (or 430 nm). The amount of substrate hydrolyzed was calculated from a standard curve of the amine product.

[2] = biological target: T1, phthalyl amidase (Xanthobacter agilis, UniProt P0C2Y0); experiment: Substrate specificity of phthalyl amidase (Tables 9-11); assay type: biochemical; conditions: for Relative Activity: 30° C., pH 8.0
Method: the activity of phthalyl amidase against 25 compounds was determined. The compounds were divided into beta-lactams (Table 9), phthalyl amides (Table 10), and aromatic ring substituted amides (Table 11). Each reaction mixture (1 ml total volume) contained 2.5 μmol of compound and 0.3 units of enzyme (based on the chromogenic substrate) of the preparative scale purified enzyme, in 50 mM phosphate buffer, pH 8.0. The reactions were conducted at 30° C. Samples of the reaction mixture were taken at various times, and methanol (equal value) was added to stop the reaction. The samples were examined by HPLC to determine the extent of substrate hydrolysis. The amount of compound hydrolyzed was calculated from a standard curve of the test compound. All substrates were stable in buffer at 30° C. and pH 8.0 in the absence of enzyme for 24 hours.

[3] = biological target: T1, phthalyl amidase; experiment: Influence of effectors and organic solvents on phthalyl amidase activity; assay type: biochemical; conditions: for % of Control Activity: 1 mM agent
Method: A typical reaction mixture consisted of 1 ml total volume and contained 0.1 mM III, 0.1 μM phthalyl amidase in 50 mM potassium phosphate buffer (pH 5.5-9.0) at 32° C. for 20 minutes. The reactions were stopped by the addition of 1 ml methanol. After removal of precipitate by centrifugation, an aliquot of the supernatant fraction (typically 30 μl) was monitored for the beta-lactam nucleus and phthalic acid by HPLC using a Zorbax C8 column (0.46×15 cm; MacMod Analytical Inc., Chadds Ford, Pa.). The two reaction products were eluted by a mobile phase constructed as continuous mixed gradients from (a) 1% ACN (acetonitrile)/0.2% TFA (trifluoroacetic acid) and (b) 80% ACN/0.2% TFA as follows: 1) 0% (b), 3min; 2) 0-50% (b), 0.5 min; 3) 50-100% (b), 3 min; 4) 100% (b), 2.5 min; 5) 100-1% (b), 0.1 min; and 6) 0% (b), 5 min.
The effect of various agents on the enzymatic activity of phthalyl amidase was determined using standard conditions (see Example 5). All agents were tested at 1 mM final concentration unless otherwise indicated.

[4] = biological target: T1, phthalyl amidase; experiment: Kinetic parameters for phthalyl amidase; assay type: biochemical; conditions: Table 12; 32° C., pH 8.2
Method: The kinetic parameters of the enzyme were determined for several representative substrates. Compounds II, XVII, and XVIII were tested using 0.9 μg/ml of enzyme. Compounds III and XI were tested using 5.14 μg/ml of enzyme. Substrate concentrations were between 0 and 25 mM and reaction time was between 2 and 20 minutes, depending on the substrate used. All reactions were run at 32° C. and at pH 8.2. Km is the Michaelis constant for enzyme kinetics, Vmax is the maximal rate of reaction calculated by the Michaelis-Menten equation, and Kcat is the catalytic constant for an enzyme reaction.

[5] = Table 11, aromatic ring substituted amides

T1 sequence (P0C2Y0 2-453): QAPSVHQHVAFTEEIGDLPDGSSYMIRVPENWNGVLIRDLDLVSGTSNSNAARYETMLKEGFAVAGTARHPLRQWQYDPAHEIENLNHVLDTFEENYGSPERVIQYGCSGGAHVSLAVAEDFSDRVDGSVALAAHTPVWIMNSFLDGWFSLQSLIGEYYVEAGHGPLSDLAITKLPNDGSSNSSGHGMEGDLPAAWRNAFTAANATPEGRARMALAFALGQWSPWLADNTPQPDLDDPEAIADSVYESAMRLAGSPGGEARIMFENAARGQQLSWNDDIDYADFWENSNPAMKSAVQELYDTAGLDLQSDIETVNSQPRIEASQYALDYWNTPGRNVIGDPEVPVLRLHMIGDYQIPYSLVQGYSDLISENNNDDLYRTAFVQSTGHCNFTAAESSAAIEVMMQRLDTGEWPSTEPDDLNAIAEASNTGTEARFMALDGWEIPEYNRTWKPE

- acceptance as substrate of the enzyme [2]: acceptable
- Relative Activity [2, 5]: 1.3
Compound: CCCCCCC(C(=O)O)n1cnc(NC(=O)c2cccc(O)c2C(=O)O)c1 (stereo not drawn) [XXI]

- Relative Activity [2, 5]: 0
Compound: CCCCCCC(C(=O)O)n1cnc(NC(=O)c2ccccc2O)c1 (stereo not drawn) [XXV]

- Relative Activity [2, 5]: 100.0
- Km [4]: 90 µM
- Vmax [4]: 1.41 μmol/sec/μmol
Compound: CCCCCCC(C(=O)O)n1cnc(NC(=O)c2ccccc2C(=O)O)c1 (stereo not drawn) [XVII]

- Relative Activity [2, 5]: 0
Compound: CCCCCCC(C(=O)O)n1cnc(NC(=O)c2cccc(O)c2)c1 (stereo not drawn) [XXVI]

- Relative Activity [2, 5]: 159.00
- Km [4]: 170 µM
- Vmax [4]: 1.94 μmol/sec/μmol
Compound: CCCCCCC(C(=O)O)n1cnc(NC(=O)c2c(F)cccc2C(=O)O)c1 (stereo not drawn) [XVIII]

- Relative Activity [2, 5]: 0
Compound: CCCCCCC(C(=O)O)n1cnc(NC(=O)c2ccccc2)c1 (stereo not drawn) [XXVIII]

- Relative Activity [2, 5]: 0
Compound: CCCCCCC(C(=O)O)n1cnc(NC(=O)c2cccc(C(=O)O)c2)c1 (stereo not drawn) [XXIV]
- acceptance as substrate of the enzyme [2]: completely eliminates hydrolytic activity

- Relative Activity [2, 5]: 0
Compound: CCCCCCC(C(=O)O)n1cnc(NC(=O)c2ccc(C(=O)O)cc2)c1 (stereo not drawn) [XXIII]
- acceptance as substrate of the enzyme [2]: completely eliminates hydrolytic activity

- Relative Activity [2, 5]: 0
Compound: CCCCCCC(C(=O)O)n1cnc(NC(=O)c2cc(O)cc(O)c2)c1 (stereo not drawn) [XXVII]

- Relative Activity ([2]; Table 10, phthalyl amides): 220.1
Compound: CSCCC(NC(=O)c1ccccc1C(=O)O)C(=O)O (racemic) [XV]

- acceptance as substrate of the enzyme [2]: Low levels of hydrolysis
- Relative Activity [2, 5]: 0.2
Compound: CCCCCCC(C(=O)O)n1cnc(NC(=O)c2ccccc2-c2nn[nH]n2)c1 (stereo not drawn) [XXII]

- acceptance as substrate of the enzyme [2]: most active compound found
- Relative Activity ([2]; Table 10, phthalyl amides): 1027.2
Compound: CCCCCCC(C(=O)O)n1cnc(NC(=O)c2ccccc2C(=O)O)c1 (stereo not drawn) [XIII]

- acceptance as substrate of the enzyme [2]: acceptable
- Relative Activity [2, 5]: 85.9
Compound: CCCCCCC(C(=O)O)n1cnc(NC(=O)c2ncccc2C(=O)O)c1 (stereo not drawn) [Compound XX]

- Relative Activity ([2]; Table 10, phthalyl amides): 90.2
Compound: CC(C)CC(NC(=O)c1ccccc1C(=O)O)C(=O)O (racemic) [XVI]

Second part, the molecule before the results:

Compound: O=C(O)c1ccccc1C(=O)O [PAA, phthalate]
- Cell weight ([1]; addition 1 mg/ml): 0.35 g/50 ml
- Total units/mg protein ([1]; addition 1 mg/ml): 1.4 µmol/min/mg
- Units/g/cells ([1]; addition 1 mg/ml): 3.9 Units/g/cells
- Cell weight ([1]; addition 2 mg/ml): 0.47 g/50 ml
- Total units/mg protein ([1]; addition 2 mg/ml): 4.3 µmol/min/mg
- Units/g/cells ([1]; addition 2 mg/ml): 9.3 Units/g/cells
- Cell weight ([1]; addition 5 mg/ml): 0.7 g/50 ml
- Total units/mg protein ([1]; addition 5 mg/ml): 3.7 µmol/min/mg
- Units/g/cells ([1]; addition 5 mg/ml): 5.5 Units/g/cells
- Cell weight ([1]; addition 10 mg/ml): 0.6 g/50 ml
- Total units/mg protein ([1]; addition 10 mg/ml): 12.0 µmol/min/mg
- Units/g/cells ([1]; addition 10 mg/ml): 19.8 Units/g/cells

Compound: OCC(O)CO [Glycerol]
- effect of solvent on enzyme activity ([3]; 10% solvent): least amount of inhibition of the enzyme

Compound: O=C(O)CN1C(=O)C(NC(=O)c2ccccc2C(=O)O)C1CCc1ccco1 (stereo not drawn) [drawing 6]
- Relative Activity ([2]; Table 9, beta-lactams): 47.9

Compound: [Cl][Mn][Cl] [MnCl2]
- % of Control Activity [3]: 84%

Compound: NC(=O)C1=CN([C@@H]2O[C@H](COP(=O)(O)OP(=O)(O)OC[C@H]3O[C@@H](n4cnc5c(N)ncnc54)[C@H](OP(=O)(O)O)[C@@H]3O)[C@@H](O)[C@H]2O)C=CC1 [NADPH, reduced form of NADP]
- effect on enzyme activity ([3]; 1 mM, iodoacetic acid 10 mM): No organic co-factors, such as ATP, NADPH or others, stimulated enzyme activity

Compound: c1cnc2c(c1)ccc1cccnc12 [Phenanthroiine, phenanthroline]
- effect on enzyme activity ([3]; 1 mM, iodoacetic acid 10 mM): little or no effect on enzyme activity

Compound: O=C(O)CN1C(=O)C(NC(=O)c2ccccc2C(=O)O)C1CCc1ccco1 (stereo not drawn) [PMBL, phthalyl monocyclic beta-lactam]
- effect on wet weight cell mass [1]: had no effect
- Cell weight ([1]; addition 1 mg/ml): 0.35 g/50 ml
- Total units/mg protein ([1]; addition 1 mg/ml): 0.28 µmol/min/mg
- Units/g/cells ([1]; addition 1 mg/ml): 0.79 Units/g/cells
- Cell weight ([1]; addition 5 mg/ml): 0.24 g/50 ml
- Total units/mg protein ([1]; addition 5 mg/ml): 2.0 µmol/min/mg
- Units/g/cells ([1]; addition 5 mg/ml): 8.1 Units/g/cells

Compound: CC(C)NC(=O)c1ccccc1C(=O)O [XII]
- Relative Activity ([2]; Table 10, phthalyl amides): 9.7

Compound: [Ca+2].[Cl-].[Cl-] [CaCl2]
- % of Control Activity [3]: 89%

Compound: O=C(O)c1ccccc1C(=O)Nc1ccc([N+](=O)[O-])c(C(=O)O)c1 [II, 4-(2'-carboxy-N-benzoyl)amino-2-carboxy-nitrobenzene]
- Relative Activity ([2]; Table 10, phthalyl amides): 295.7
- Km [4]: 50 µM
- Vmax [4]: 5.95 μmol/sec/μmol

Compound: [Cl][Fe][Cl] [FeCl2]
- % of Control Activity [3]: 102%

Compound: O=C(O)CNC(=O)c1ccccc1C(=O)O [XI]
- Relative Activity ([2]; Table 10, phthalyl amides): 31.8
- Km [4]: 140 µM
- Vmax [4]: 0.27 μmol/sec/μmol

Compound: O=C(O)c1ccccc1C(=O)Nc1ccc([N+](=O)[O-])cc1 [VIII]
- Relative Activity ([2]; Table 10, phthalyl amides): 544.6

Compound: O=C(O)c1ccccc1C(=O)NCc1ccccc1
- Relative Activity ([2]; Table 10, phthalyl amides): 40.2

Compound: [Cl][Ni][Cl] [NiCl2]
- % of Control Activity [3]: 94%

Compound: [Cl-].[Cl-].[Zn+2] [ZnCl2]
- % of Control Activity [3]: 100%

Compound: O=C(O)CI [Iodoacetate]
- effect on enzyme activity [3]: exert inhibitory activity; also recorded: significantly reduced phthalyl amidase activity; also recorded: significantly inhibited the enzyme

Compound: Nc1ncnc2c1ncn2[C@@H]1O[C@H](COP(=O)(O)OP(=O)(O)OP(=O)(O)O)[C@@H](O)[C@H]1O [ATP, adenosine 5triphosphate]
- effect on enzyme activity ([3]; 1 mM, iodoacetic acid 10 mM): No organic co-factors, such as ATP, NADPH or others, stimulated enzyme activity

Compound: O=C(O)CNC(=O)c1ccccc1C(=O)O [PAG, phthalyl glycine]
- effect on wet weight cell mass [1]: increased the wet weight cell mass
- Cell weight ([1]; addition 1 mg/ml): 0.33 g/50 ml
- Total units/mg protein ([1]; addition 1 mg/ml): 0.35 µmol/min/mg
- Units/g/cells ([1]; addition 1 mg/ml): 1.04 Units/g/cells
- Cell weight ([1]; addition 5 mg/ml): 0.5 g/50 ml
- Total units/mg protein ([1]; addition 5 mg/ml): 4.4 µmol/min/mg
- Units/g/cells ([1]; addition 5 mg/ml): 9.4 Units/g/cells

Compound: [Cl][Cu][Cl] [CuCl2]
- % of Control Activity [3]: 36%
- effect on enzyme activity ([3]; 1 mM, iodoacetic acid 10 mM, listed as Cu^++): exert inhibitory activity; also recorded: significantly inhibited the enzyme
- effect on enzyme activity ([3]; 1 mM, iodoacetic acid 10 mM, listed as copper ions): significantly reduced phthalyl amidase activity

Compound: [Cl][Fe]([Cl])[Cl] [FeCl3]
- % of Control Activity [3]: 96%

Compound: [Cl-].[Cl-].[Mg+2] [MgCl2]
- % of Control Activity [3]: 102%

Compound: O=C(O)CN1C(=O)C(NC(=O)c2ccccc2)C1CCc1ccco1 (stereo not drawn) [VI]
- Relative Activity ([2]; Table 9, beta-lactams): 0

Compound: O=C(O)C1=C(Cl)CCC2C(NC(=O)c3ccccc3C(=O)O)C(=O)N12 (stereo not drawn) [VII]
- Relative Activity ([2]; Table 10, phthalyl amides): 100.0

Compound: O=C(O)CN1C(=O)C(NC(=O)Cc2ccccc2)C1CCc1ccco1 (stereo not drawn) [V]
- Relative Activity ([2]; Table 9, beta-lactams): 0

Compound: [Cl-].[Cl-].[Co+2] [CoCl2]
- % of Control Activity [3]: 101%

Compound: O=C(O)CN(CCN(CC(=O)O)CC(=O)O)CC(=O)O [EDTA]
- effect on enzyme activity [3]: little or no effect on enzyme activity

Compound: O=C(O)CN1C(=O)C(NC(=O)COc2ccccc2)C1CCc1ccco1 (stereo not drawn) [IV]
- Relative Activity ([2]; Table 9, beta-lactams): 0

Compound: O=C(O)c1cc[c]([Hg][OH])cc1 [p-HMB, parahydroxy mercuric benzoate]
- % of Control Activity [3]: 65%
- effect on enzyme activity ([3]; 1 mM, iodoacetic acid 10 mM): exert inhibitory activity; also recorded: significantly reduced phthalyl amidase activity; also recorded: significantly inhibited the enzyme

Compound: COC(=O)[C@H](Cc1ccccc1)NC(=O)[C@H](CC(=O)O)NC(=O)c1ccccc1C(=O)O [XIV]
- Relative Activity ([2]; Table 10, phthalyl amides): 118.5
